Active and inactive are the calls of the source.
Assays:
[1] = inhibitors of firefly luciferase expression or activity, dose response, H4 neuroglioma cells, luminescence (AID 1990); format: functional, cell-based
[2] = luciferase reporter signal reduction – luminescence, H4-C neuroglioblastoma cells, dose response (AID 2458); format: functional, cell-based;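 also: H4 neuroglioblastoma cells stably carrying a luciferase reporter gene fusion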
cells = format: functional, cell-based
[3] = Luminescence Cell-Based Dose Response HTS to Identify Inhibitors of 5'UTR Stem-Loop Driven Prion Protein mRNA Translation in H4 Neuroglioblastoma Cells. [Related pubchem assays: 1827 (Project Summary), 1813 (Primary HTS)]; format: functional
[4] = inhibitors of SNCA 5'UTR-driven reporter translation, confirmation, H4 neuroglioma cells, luminescence (AID 1988); format: functional, cell-based
[5] = Luminescence-based counterscreen assay for KLF5 inhibitors: dose response cell-based high throughput screening assay to identify cytotoxic compounds using the IEC-6 intestinal epithelial cell line. [Related pubchem assays: 1700 (Primary screen.), 1834 (Confirmation screen.), 1858 (Summary AID.), 1905 (Counterscreen.)]; format: functional
[6] = inhibitors of SNCA 5'UTR-driven translation, confirmation, luminescence, H4 neuroglioblastoma cells, dose confirmation (AID 2454); format: functional, cell-based;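 also: H4 neuroglioblastoma cells carrying an alpha-synuclein 5'UTR luciferase reporter; potency for inhibition of the luciferase signal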
Jurkat = assay: antigen receptor-induced NF-kB inhibitors, dose response, Jurkat, luciferase reporter, luminescence, B- and T-cell (AID 489004); format: functional, cell-based; settings: Homo sapiens;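 also: NF-kB luciferase reporter Jurkat cells stimulated with PMA plus ionomycin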
[7] = cytotoxicity in HEK-293T NF-kB-Luc cells, dose response, cytotoxicity control for B/T-cell NF-kB inhibitor project, cell-based, uHTS hits (AID 489019); format: functional;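 also: IC50 reflects cytotoxicity as loss of cell viability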
[8] = inhibitors of HIV Env-driven cell fusion, dose response, cherry-pick (AID 652057); format: functional, cell-based
[9] = ZM109 Env clade C HIV-1 fusion inhibitors, dose response, HeLa effector, CEM target cells, luciferase, cherry-pick (AID 652058); format: functional, cell-based
Paired box protein Pax-8 = Paired box protein Pax-8 (Homo sapiens, UniProt Q06710); assay: inhibitors of PAX8-driven TPO luciferase reporter, dose response, RMG-I cells, cherry-pick (AID 687027); format: functional, cell-based;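 also: luciferase reporter driven by Pax8 target thyroperoxidase promoter measured by SteadyGlo luminescence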
[10] = off-target signal loss in HeLa-CEM21 co-culture – HeLa F-luc CTL cells, cherry-picked, counter-screen for HIV-1 Env fusion inhibitor project, dose response (AID 652040); format: functional, cell-based;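 also: potency for signal decrease marking cytotoxic or nonspecific inhibition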
[11] = inhibitors of clade B AD8 Env fusion, dose response, cell-based, cherry-pick (AID 652062); format: functional;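 also: luciferase signal from cell-cell fusion driven by HIV-1 clade B AD8 Env; potency is for inhibitors of fusion seen as a drop in luminescence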
[12] = target: Luciferin 4-monooxygenase (Photinus pyralis, UniProt P08659); assay: Counter Screen for Luciferase-based Assay Positives. [Related pubchem assays: 620, 618, 411 ]
HT-1080 = assay: cytotoxicity in HT1080 fibrosarcoma cells, cell-based, fluorescence readout (AID 620); format: functional; settings: Homo sapiens
HEK293 = assay: inhibitors of LMP1-driven NF-kB reporter, dose response, cell-based, HEK293, luciferase, cherry-pick (AID 588343); format: functional; settings: Homo sapiens
[13] = target: Epstein-Barr nuclear antigen 1 (Epstein-Barr virus (strain B95-8) (HHV-4) (Human herpesvirus 4), UniProt P03211); assay: EBNA-1 inhibitors, dose response, biochemical, fluorescence polarization, 1536-well (AID 2381); set-up: species or system human gammaherpesvirus 4;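 also: fluorescence polarization of a Cy5 DNA probe bound by EBNA-1 protein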
[14] = target: Lytic switch protein BZLF1 (Epstein-Barr virus (strain B95-8) (HHV-4) (Human herpesvirus 4), UniProt P03206); assay: EBV ZTA inhibitors, dose response, counter-screen for EBNA-1 inhibitor project, biochemical, fluorescence polarization, Epstein-Barr virus, 1536-well (AID 2377); set-up: species or system human gammaherpesvirus 4;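 also: fluorescence polarization of Cy5-labelled ZRE DNA probe bound by purified Zta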
[15] = target: Potassium voltage-gated channel subfamily KQT member 2 (Rattus norvegicus, UniProt O88943, W236L); assay: KCNQ2 channel potentiators, dose response, mechanism study for KCNQ2 potentiator project, cell-based, automated electrophysiology (AID 2603); format: functional
Bcl-2-related protein A1 = target: T1, Bcl-2-related protein A1 (Mus musculus, UniProt Q07440); format: functional;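 also: confirmatory dose–response counterscreen on Bfl-1, used to check hits from a UBC13 polyubiquitin inhibitor campaign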
T1 sequence (Q07440 whole entry): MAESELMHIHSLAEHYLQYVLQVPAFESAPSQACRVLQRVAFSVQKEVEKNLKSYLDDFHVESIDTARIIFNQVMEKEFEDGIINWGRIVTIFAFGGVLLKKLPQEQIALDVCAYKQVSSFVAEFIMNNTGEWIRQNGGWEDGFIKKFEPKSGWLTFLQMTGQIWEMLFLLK

[16] = target: T2, Ubiquitin-conjugating enzyme E2 N (Homo sapiens, UniProt P61088); format: functional
T2 sequence (P61088 whole entry): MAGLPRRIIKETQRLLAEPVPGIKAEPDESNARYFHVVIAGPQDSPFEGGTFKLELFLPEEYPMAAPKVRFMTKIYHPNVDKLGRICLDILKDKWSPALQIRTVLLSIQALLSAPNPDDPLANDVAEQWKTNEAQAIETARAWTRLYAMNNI

[17] = target: T2, Ubiquitin-conjugating enzyme E2 N; format: functional; remark: listed apart in the source
[18] = target: T3, Replicative DNA helicase DnaB (Mycobacterium tuberculosis, UniProt P9WMR3); assay: DnaB intein splicing inhibitors, dose response, biochemical, cell-free fluorescence (AID 449749); format: functional
T3 sequence (P9WMR3 whole entry): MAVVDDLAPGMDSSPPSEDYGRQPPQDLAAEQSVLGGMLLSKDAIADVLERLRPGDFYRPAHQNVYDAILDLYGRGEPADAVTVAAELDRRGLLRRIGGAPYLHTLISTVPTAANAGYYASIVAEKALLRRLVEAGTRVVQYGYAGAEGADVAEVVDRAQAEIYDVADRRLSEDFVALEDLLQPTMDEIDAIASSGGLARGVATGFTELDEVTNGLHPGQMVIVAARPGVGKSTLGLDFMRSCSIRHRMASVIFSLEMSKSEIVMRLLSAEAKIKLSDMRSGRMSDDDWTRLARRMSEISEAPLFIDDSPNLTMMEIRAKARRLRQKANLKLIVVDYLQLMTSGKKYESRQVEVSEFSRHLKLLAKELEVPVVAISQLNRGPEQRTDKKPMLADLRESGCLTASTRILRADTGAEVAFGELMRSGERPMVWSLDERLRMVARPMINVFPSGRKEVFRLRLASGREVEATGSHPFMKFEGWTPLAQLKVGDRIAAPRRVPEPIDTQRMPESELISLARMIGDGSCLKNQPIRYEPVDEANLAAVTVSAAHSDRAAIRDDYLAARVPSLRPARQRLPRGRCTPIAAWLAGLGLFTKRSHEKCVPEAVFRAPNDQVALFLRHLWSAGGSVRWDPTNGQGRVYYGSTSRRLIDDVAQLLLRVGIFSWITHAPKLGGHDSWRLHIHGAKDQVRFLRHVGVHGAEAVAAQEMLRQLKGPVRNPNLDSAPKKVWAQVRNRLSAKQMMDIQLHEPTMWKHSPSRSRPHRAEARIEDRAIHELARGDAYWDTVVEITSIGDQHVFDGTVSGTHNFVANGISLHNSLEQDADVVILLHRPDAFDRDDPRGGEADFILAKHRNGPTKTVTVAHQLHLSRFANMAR

[19] = target: T4, High affinity choline transporter 1 (Homo sapiens, UniProt Q9GZV3); assay: CHT inhibitors, dose response, cell-based, 5-point CRC, membrane potential dye (AID 504840); format: functional
T4 sequence (Q9GZV3 whole entry): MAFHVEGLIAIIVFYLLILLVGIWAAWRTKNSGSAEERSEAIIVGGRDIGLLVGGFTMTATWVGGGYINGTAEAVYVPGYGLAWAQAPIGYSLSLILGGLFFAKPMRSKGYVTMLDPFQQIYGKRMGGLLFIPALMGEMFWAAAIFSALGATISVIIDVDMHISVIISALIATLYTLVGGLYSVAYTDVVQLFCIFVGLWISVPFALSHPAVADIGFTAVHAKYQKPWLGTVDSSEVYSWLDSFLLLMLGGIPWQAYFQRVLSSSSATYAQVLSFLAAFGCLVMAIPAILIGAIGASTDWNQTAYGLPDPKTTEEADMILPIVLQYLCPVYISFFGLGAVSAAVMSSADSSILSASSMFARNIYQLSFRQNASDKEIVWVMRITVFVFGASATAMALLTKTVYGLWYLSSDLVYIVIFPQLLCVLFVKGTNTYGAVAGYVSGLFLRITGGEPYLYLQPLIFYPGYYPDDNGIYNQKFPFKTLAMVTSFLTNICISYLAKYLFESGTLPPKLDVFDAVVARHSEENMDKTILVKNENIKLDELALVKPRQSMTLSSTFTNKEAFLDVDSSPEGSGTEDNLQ

Vero = Vero cell cytotoxicity, cytotoxicity control for flavivirus capping enzyme inhibitors (AID 588742); format: functional; settings: Chlorocebus sabaeus
Protein RecA = target: T5, Protein RecA (Mycobacterium tuberculosis, UniProt P9WHJ3); assay: Fluorescence Cell-Free Homogeneous Dose Retest to Identify Inhibitors of RecA-Intein Splicing Activity. [Related pubchem assays (depositor defined):AID2097, AID2223, AID489010, AID492950]; format: functional
T5 sequence (P9WHJ3 whole entry): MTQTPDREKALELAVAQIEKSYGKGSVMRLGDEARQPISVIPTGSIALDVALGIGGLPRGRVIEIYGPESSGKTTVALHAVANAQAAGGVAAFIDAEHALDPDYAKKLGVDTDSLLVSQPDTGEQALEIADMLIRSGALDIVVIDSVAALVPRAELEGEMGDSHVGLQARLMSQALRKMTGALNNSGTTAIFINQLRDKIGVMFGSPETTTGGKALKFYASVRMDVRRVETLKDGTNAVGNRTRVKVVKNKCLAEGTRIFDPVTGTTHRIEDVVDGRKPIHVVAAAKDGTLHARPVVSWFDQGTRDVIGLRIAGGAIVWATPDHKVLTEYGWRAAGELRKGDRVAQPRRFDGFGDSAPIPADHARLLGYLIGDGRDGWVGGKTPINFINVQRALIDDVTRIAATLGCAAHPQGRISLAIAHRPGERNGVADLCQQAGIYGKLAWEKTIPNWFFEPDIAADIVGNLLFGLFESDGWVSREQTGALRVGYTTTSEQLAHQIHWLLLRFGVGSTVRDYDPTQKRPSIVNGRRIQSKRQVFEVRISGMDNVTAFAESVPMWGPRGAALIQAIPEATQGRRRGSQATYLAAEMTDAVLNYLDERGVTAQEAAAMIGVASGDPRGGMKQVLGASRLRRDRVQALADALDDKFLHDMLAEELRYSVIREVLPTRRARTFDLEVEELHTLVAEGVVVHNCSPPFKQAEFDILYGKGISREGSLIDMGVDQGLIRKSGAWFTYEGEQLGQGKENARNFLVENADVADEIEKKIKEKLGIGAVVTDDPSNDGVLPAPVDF

[20] = target: T4, High affinity choline transporter 1; assay: CHT inhibitors, dose response, cell-based, 10-point CRC, membrane potential dye (AID 588401); format: functional;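 also: membrane potential dye fluorescence of choline-evoked depolarization via CHT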
Genome polyprotein = Genome polyprotein (dengue virus type 2, UniProt P29990); assay: Dengue-2 NS5 methyltransferase inhibitors, primary screen, biochemical, confirmation dose response (AID 588689); format: functional
[21] = Shn3 3'UTR reporter inhibitors, dose response, cell-based, Clone20 osteoblasts, firefly luciferase, cherry-picked (AID 624132); format: functional;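 also: firefly luciferase luminescence from reporter carrying the Shn3 3'UTR in osteoblasts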
[22] = control 3'UTR Renilla luciferase suppression, dose response, counter-screen for Shn3 inhibitor project, cell-based, Clone20-Shn3RL, cherry-picked (AID 624133); format: functional
[23] = reduction of endogenous Shn3 mRNA, dose response, qPCR, Clone20 cells, cherry-pick (AID 743415); format: functional, cell-based
[24] = reduction of Shn3 3'UTR firefly luciferase signal, dose response, Schnurri-3 inhibitor project, cell-based, Clone20 osteoblasts, cherry-pick, set 2 (AID 720490); format: functional;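 also: actives lower the luminescence signal as inhibitors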
[25] = inhibitors of control Renilla luciferase reporter, dose response, counter-screen for Shn3 3'UTR targeting project, Clone20-Shn3RL cells, dual-Glo, cherry-pick, set 2 (AID 720724); format: functional, cell-based; settings: Dual-Go Shn3RL

Sequence of Potassium voltage-gated channel subfamily KQT member 2 (O88943 whole entry W236L): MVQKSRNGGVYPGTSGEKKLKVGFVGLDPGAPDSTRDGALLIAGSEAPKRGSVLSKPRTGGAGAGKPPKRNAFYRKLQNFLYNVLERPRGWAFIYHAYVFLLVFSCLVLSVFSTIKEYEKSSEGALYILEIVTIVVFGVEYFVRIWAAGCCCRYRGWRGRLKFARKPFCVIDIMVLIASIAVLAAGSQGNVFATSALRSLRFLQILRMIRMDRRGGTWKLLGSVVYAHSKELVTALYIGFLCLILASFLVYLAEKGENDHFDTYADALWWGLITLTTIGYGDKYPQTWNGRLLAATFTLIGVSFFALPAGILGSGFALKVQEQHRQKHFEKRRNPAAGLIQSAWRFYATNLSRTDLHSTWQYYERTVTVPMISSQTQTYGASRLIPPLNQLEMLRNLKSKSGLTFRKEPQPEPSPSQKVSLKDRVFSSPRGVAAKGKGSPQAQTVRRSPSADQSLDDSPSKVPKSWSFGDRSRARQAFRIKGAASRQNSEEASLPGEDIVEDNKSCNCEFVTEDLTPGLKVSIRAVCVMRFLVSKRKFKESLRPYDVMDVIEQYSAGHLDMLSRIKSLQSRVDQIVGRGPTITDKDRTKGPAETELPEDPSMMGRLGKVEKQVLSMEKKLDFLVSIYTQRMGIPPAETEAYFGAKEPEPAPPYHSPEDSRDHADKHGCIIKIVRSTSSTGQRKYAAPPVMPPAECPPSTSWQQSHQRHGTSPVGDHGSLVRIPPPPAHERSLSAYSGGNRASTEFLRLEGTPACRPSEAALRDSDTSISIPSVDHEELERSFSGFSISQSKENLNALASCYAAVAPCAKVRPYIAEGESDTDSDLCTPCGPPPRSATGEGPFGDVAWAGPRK
Sequence of Luciferin 4-monooxygenase (P08659 whole entry): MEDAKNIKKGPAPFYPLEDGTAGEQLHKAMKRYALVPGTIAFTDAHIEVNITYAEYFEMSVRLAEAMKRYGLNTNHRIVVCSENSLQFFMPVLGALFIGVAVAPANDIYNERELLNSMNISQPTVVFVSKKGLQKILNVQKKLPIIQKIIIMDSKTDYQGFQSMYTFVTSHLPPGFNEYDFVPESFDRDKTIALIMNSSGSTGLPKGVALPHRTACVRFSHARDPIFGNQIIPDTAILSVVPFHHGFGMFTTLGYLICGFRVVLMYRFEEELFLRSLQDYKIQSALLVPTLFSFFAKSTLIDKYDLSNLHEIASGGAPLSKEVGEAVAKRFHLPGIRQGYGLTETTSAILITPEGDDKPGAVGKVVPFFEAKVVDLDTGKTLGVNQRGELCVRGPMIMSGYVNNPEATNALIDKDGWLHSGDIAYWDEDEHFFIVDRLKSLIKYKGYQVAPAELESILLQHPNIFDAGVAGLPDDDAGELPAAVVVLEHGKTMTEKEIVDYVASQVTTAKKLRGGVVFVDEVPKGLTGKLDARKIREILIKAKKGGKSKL
Sequence of Genome polyprotein (P29990 2492-3391 limits assumed): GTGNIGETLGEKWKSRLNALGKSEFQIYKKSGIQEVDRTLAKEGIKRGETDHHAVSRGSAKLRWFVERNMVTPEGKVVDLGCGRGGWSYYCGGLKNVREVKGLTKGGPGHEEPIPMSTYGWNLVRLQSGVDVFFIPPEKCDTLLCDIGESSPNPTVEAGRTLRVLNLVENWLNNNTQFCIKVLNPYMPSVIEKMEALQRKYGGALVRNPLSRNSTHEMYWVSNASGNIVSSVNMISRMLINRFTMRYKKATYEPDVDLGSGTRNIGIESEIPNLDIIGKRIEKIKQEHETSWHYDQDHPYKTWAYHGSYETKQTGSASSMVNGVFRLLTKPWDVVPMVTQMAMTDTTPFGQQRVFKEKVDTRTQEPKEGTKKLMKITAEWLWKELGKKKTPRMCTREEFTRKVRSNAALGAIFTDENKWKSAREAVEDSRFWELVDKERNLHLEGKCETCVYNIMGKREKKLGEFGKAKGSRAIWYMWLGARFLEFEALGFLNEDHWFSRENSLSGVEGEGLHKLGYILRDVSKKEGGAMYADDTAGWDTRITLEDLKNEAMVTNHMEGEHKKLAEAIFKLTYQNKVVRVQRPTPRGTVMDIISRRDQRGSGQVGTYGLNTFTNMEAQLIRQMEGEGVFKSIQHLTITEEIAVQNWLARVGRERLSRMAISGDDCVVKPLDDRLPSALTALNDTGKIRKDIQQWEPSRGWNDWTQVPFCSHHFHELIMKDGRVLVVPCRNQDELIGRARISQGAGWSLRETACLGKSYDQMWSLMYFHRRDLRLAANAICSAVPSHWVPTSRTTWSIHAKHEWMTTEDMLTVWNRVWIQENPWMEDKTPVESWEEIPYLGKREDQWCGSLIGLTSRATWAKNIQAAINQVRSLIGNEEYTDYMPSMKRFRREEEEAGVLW
Sequence of Paired box protein Pax-8 (Q06710 whole entry, the tested form may be a part): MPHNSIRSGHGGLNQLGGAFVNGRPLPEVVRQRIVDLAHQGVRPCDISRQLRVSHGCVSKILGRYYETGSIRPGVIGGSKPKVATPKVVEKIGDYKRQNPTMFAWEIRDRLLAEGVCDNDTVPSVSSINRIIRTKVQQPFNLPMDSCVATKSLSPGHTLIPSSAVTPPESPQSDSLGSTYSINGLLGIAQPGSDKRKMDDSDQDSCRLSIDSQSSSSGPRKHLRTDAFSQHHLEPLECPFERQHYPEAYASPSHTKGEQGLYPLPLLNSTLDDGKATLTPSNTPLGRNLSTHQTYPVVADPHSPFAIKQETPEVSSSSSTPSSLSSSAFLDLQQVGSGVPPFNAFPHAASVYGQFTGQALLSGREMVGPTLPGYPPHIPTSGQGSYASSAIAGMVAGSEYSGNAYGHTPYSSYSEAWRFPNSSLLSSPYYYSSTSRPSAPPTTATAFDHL
Sequence of Lytic switch protein BZLF1 (P03206 whole entry): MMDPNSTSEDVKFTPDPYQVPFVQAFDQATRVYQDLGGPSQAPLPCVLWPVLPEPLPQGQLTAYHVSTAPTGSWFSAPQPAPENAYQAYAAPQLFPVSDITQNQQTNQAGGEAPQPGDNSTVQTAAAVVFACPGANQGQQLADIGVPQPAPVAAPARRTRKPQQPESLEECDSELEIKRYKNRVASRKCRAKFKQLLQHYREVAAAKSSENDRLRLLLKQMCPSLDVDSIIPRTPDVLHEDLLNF
Sequence of Epstein-Barr nuclear antigen 1 (P03211 whole entry): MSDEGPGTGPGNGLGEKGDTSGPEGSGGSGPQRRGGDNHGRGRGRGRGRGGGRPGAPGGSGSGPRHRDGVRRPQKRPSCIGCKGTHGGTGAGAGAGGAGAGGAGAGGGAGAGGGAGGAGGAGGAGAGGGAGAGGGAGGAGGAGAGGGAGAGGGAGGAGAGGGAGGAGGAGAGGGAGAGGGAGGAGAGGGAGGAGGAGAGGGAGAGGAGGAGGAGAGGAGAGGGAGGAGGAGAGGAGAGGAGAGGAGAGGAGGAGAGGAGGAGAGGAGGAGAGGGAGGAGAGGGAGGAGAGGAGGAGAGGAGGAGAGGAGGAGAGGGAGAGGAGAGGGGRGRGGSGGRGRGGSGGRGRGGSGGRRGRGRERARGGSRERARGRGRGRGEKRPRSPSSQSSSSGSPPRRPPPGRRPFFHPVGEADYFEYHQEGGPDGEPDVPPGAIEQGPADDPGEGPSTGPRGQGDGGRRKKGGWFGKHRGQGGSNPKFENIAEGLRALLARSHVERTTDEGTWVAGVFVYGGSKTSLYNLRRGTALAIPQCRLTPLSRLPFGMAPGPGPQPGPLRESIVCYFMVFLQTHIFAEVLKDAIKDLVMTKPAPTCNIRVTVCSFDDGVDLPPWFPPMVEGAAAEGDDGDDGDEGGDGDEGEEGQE

SMILES: O=C(NCCc1ccccc1F)c1ccc2c(c1)OCCO2
- EC50 [1]: 0.16 µM (active)
- EC50 [2]: 0.258 µM (active)
- EC50 (cells): 0.316 µM (active)
- EC50 [3]: < 0.1 µM (active)
- EC50 [4]: 0.113 µM (active)
- IC50 [5]: > 39.8 µM (not active)
- EC50 [6]: 0.151 µM (active)
- IC50 (Jurkat): 0.77 µM (active)
- IC50 [7]: > 80 µM (inactive)
- AC50 [8]: 2.14 µM (active)
- AC50 [9]: 8.11 µM (active)
- AC50 (Paired box protein Pax-8): 2.18 µM (active)
- AC50 [10]: 3.21 µM (active)
- AC50 [11]: 1.25 µM (active)

SMILES: Cc1ccc(C(=O)Nc2cccc(C(=O)O)c2)cc1S(=O)(=O)N1CCCCC1
- EC50 [12]: < 0.2 µM (active)
- EC50 (HT-1080): > 50 µM (not active)
- AC50 (HEK293): 3.76 µM (active)

SMILES: COc1ccc(-c2nonc2NC(=O)c2oc3ccc(F)cc3c2C)cc1OC
- IC50 [13]: 16.4 µM (not active)
- IC50 [14]: > 111 µM (not active)

SMILES: CCCc1nnc(NC(=O)c2nc(S(=O)(=O)Cc3ccc(C)cc3)ncc2Cl)s1
- EC50 [15]: 3.02 µM (active)
- IC50 (Bcl-2-related protein A1): > 20 µM (inactive)
- IC50 [16]: 10.5 µM (active)
- IC50 [17]: 14.8 µM (active)
- AC50 [18]: > 380 µM (inactive)
- IC50 [19]: 2.59 µM (active)
- CC50 (Vero): > 40 µM (active)
- EC50 (Protein RecA): 86.7 µM (active)
- IC50 [20]: 3.36 µM (active)
- IC50 (Genome polyprotein): > 100 µM (active)
- AC50 [21]: 0.538 µM (active)
- AC50 [22]: 12.5 µM (active)
- AC50 [23]: 13.4 µM (active)
- AC50 [24]: 2.05 µM (active)
- AC50 [25]: 40.7 µM (active)
